# Tests used:
# Format in all cases: physicochemical
# [1] = Cyclic voltammogram, negative region, 1 mM solution in 0.1M TBAPF6 in acetonitrile
# Description: FIG. 2. Voltammogram of the […]/negative region of a 1 mM solution of Fe(TREN-Pic) in 0.1 M tetrabutylammonium hexafluorophosphate (TBAPF6) in acetonitrile (MeCN), obtained using a glassy carbon working electrode, a platinum wire counter electrode, and a 0.010 M AgBF4 reference electrode.
# (§1) In the negative portion of a cyclic voltammogram four features at −0.93, −2.10, −2.28, and −2.55V are observed with current ratios (i[cathodic]/i[anodic]) of 1.01, 0.67, 1.17, and 1.01 respectively. These were obtained with a 1 mM solution of Fe(TREN-Pic) in 0.1M tetrabutylammonium hexafluorophosphate in acetonitrile using a glassy carbon working electrode, platinum wire counter, and a 0.01M silver tetrafluoroborate reference electrode. When the −0.93V wave is subjected to bulk electrolytic cycling over 25 repetitions, a high Coulombic efficiency is calculated (˜95%) with an unoptimized slow decay in utilization (electrons stored per redox carrier molecule) of 4% over the first ten cycles. […] This represents only the third known complex to display this behavior (JACS, 2016, 15378 and Journal of Power Sources, 2016, 681).
# [2] = Bulk electrolytic cycling (galvanostatic 1 electron charging and discharging) of the −0.93V wave; conditions: over the first ten cycles, unoptimized
# Description: FIG. 3. Galvanostatic 1 electron charging and discharging of a 1 mM solution of Fe(TREN-Pic) in 0.1 M TBAPF6 in MeCN, charging and discharging rates were both 1 mA and potential cutoffs were −1.3 V vs Ag^+ during charging and −0.4 V vs Ag^+ during discharging.
# FIG. 5. Metrics obtained from bulk electrolysis displaying high coulombic efficiencies for the charge/discharge cycling.
# as §1
# [3] = Bulk cycling with broadened voltage window (galvanostatic 2 electron charging and discharging); conditions: voltage window broadened to include the next wave; over 25 cycles
# Description: FIG. 6. Galvanostatic 2 electron charging and discharging of a 1 mM solution of Fe(TREN-Pic) in 0.1 M TBAPF6 in MeCN, charging and discharging rates were both 1 mA and potential cutoffs were −2.14 V vs Ag^+ during charging and −0.4 V vs Ag^+ during discharging.
# FIG. 8. Metrics obtained from bulk electrolysis displaying high coulombic efficiencies for the charge/discharge cycling and the complexes capability to reversibly store multiple electron equivalents.
# as §1
substance,measurement,setting,value
Fe III tris(2-aminoethyl)amine (TREN) picolinic (PIC) [Fe(TREN-Pic)],potential of first feature in negative portion of cyclic voltammogram,"[1]; 1 mM in 0.1M tetrabutylammonium hexafluorophosphate in acetonitrile, glassy carbon working electrode, platinum wire counter, 0.01M silver tetrafluoroborate reference, first feature",−0.93 V
same,current ratio (i[cathodic]/i[anodic]),[1]; feature at −0.93 V,1.01
same,current ratio (i[cathodic]/i[anodic]),[1]; feature at −2.10 V,0.67
same,current ratio (i[cathodic]/i[anodic]),[1]; feature at −2.28 V,1.17
same,current ratio (i[cathodic]/i[anodic]),[1]; feature at −2.55 V,1.01
same,potential of fourth feature in negative portion of cyclic voltammogram,"[1]; same conditions, fourth feature",−2.55 V
same,potential of second feature in negative portion of cyclic voltammogram,"[1]; same conditions, second feature",−2.10 V
same,potential of third feature in negative portion of cyclic voltammogram,"[1]; same conditions, third feature",−2.28 V
same,decay in utilization (electrons stored per redox carrier molecule),[2],4%
same,decay over cycling,[3],significant decay

# Reference: patent publication US11569513B1, “Redox flow battery carrier molecule” (Triad National Security, LLC, priority 2020, dated 2023)
